Source: PMC5979531, “Structural Requirements of Alkylglyceryl-L-Ascorbic Acid Derivatives for Melanogenesis Inhibitory Activity” (International Journal of Molecular Sciences, 2018)

Assays:
B16 melanoma 4A5 cells = assay: Theophylline-stimulated melanogenesis inhibition (melanin content); type: cell-based, murine; conditions: for inhibition at 3 µM / inhibition at 10 µM / inhibition at 30 µM / inhibition at 100 µM / IC50: Mus musculus, 72 h; for inhibition at 3 µM / inhibition at 10 µM / inhibition at 30 µM / inhibition at 100 µM: theophylline-stimulated B16 4A5 cells; for IC50: theophylline (1 mM)-stimulated B16 melanoma 4A5 cells
Description: (§1) The effects on theophylline-stimulated melanogenesis and viability of B16 melanoma 4A5 cells were examined according to previously described protocols. Briefly, murine B16 melanoma 4A5 cells were seeded into 48-well plates in DMEM. After 24 h of culture, a test compound and theophylline (1 mM) were added and incubated for 72 h. The melanin content and cell viability were then measured. IC50 values were determined graphically.
Inhibition (%) was calculated using the following formula, where A and B indicate the optical density of the vehicle- and test compound-treated groups, respectively, and C indicates cell viability (%) (see below): Inhibition (%) = [(A − B)/A]/(C/100) × 100.

[1] = Cell viability of B16 melanoma 4A5 cells; type: cell-based, murine; conditions: mouse, B16 4A5 cells
Description: as §1

tyrosinase from mushroom = assay: Mushroom tyrosinase activity; type: biochemical
Description: Tyrosinase activities using L-tyrosine or L-DOPA as a substrate were determined according to the protocols described previously. Briefly, samples, L-tyrosine (2.5 mM, or L-DOPA, 3.0 mM), mushroom tyrosinase (46 units/mL), and phosphate buffer were mixed in a 96-well plate and incubated at 25 °C. (L-tyrosine; 30 min, L-DOPA; 5 min). The absorbance was then measured at 492 nm.

tyrosinase mRNA = assay: Expression of tyrosinase mRNA (qRT-PCR); type: cell-based, murine; conditions: 3 µM, B16 4A5 cells, theophylline 1 mM, 72 h
Description: (§2) The expression of tyrosinase, TRP-1, and TRP-2 mRNA was assessed according to previously reported methods. Briefly, murine B16 melanoma 4A5 cells were seeded into 96-well plates in DMEM. After 24 h of culture, a test compound and theophylline (1 mM) were added and incubated for 72 h. Then, the amount of each mRNA was quantified by quantitative reverse transcription PCR.

TRP-1 mRNA = assay: Expression of TRP-1 mRNA (qRT-PCR); type: cell-based, murine; conditions: B16 4A5 cells, theophylline 1 mM, 72 h
Description: as §2

TRP-2 mRNA = assay: Expression of TRP-2 mRNA (qRT-PCR); type: cell-based, murine; conditions: 3 µM, B16 4A5 cells, theophylline 1 mM, 72 h
Description: as §2

Row | IC50 (B16 melanoma 4A5 cells) [µM] | Inhibition (%) of mushroom tyrosinase (tyrosinase from mushroom; Substrate: L-DOPA, 10 µM) [%] | Inhibition (%) of mushroom tyrosinase (tyrosinase from mushroom; Substrate: L-DOPA, 30 µM) [%] | Inhibition (%) of mushroom tyrosinase (tyrosinase from mushroom; Substrate: L-Tyrosine, 10 µM) [%] | Inhibition (%) of mushroom tyrosinase (tyrosinase from mushroom; Substrate: L-Tyrosine, 30 µM) [%] | Inhibition (%) of mushroom tyrosinase (tyrosinase from mushroom; Substrate: L-DOPA, 100 µM) [%] | Inhibition (%) of mushroom tyrosinase (tyrosinase from mushroom; Substrate: L-Tyrosine, 100 µM) [%] | SMILES | inhibition at 3 µM (B16 melanoma 4A5 cells) [%] | inhibition at 10 µM (B16 melanoma 4A5 cells) [%] | inhibition at 30 µM (B16 melanoma 4A5 cells) [%] | inhibition at 100 µM (B16 melanoma 4A5 cells) [%] | viability at 72 h, 3 µM [1] [%] | viability at 72 h, 10 µM [1] [%] | viability at 72 h, 30 µM [1] [%] | viability at 72 h, 100 µM [1] [%] | potency relative to arbutin (melanogenesis inhibition) (B16 melanoma 4A5 cells; ratio of IC50 values vs arbutin) | Tyrosinase mRNA/β-actin mRNA (tyrosinase mRNA) | TRP-1 mRNA/β-actin mRNA (TRP-1 mRNA; 3 µM) | TRP-1 mRNA/β-actin mRNA (TRP-1 mRNA; 10 µM) | TRP-2 mRNA/β-actin mRNA (TRP-2 mRNA)
1 | 10.6 | −3.1 ± 3.3 | −4.6 ± 2.2 | −0.7 ± 4.5 | −7.1 ± 1.4 |  |  | CCCCCCCCCCCCOC1=C(OCC(O)CO)[C@@H]([C@@H](O)CO)OC1=O (stereo partly drawn) [compound 12, 3-O-(2,3-dihydroxypropyl)-2-O-dodecyl-AsA] | 20.4 ± 10.2 | 50 ± 5.7 | 96 ± 2.9 | 97.9 ± 4.2 | 112 | 104 | 73.3 | 24.6 |  |  |  |  | 
2 | 23.5 | 0.7 ± 3.8 | −5.3 ± 4.2 | −4.1 ± 5.3 | −3.1 ± 4.1 |  |  | CCCCCCCCCCOC1=C(OCC(O)CO)C(=O)O[C@@H]1[C@@H](O)CO (stereo partly drawn) [compound 24, 3-O-decyl-2-O-(2,3-dihydroxypropyl)-AsA] | -5.8 ± 6 | 20.9 ± 5.4 | 64.3 ± 3.8 | 103 ± 2.4 | 92.5 | 87.1 | 68.5 | 34.3 |  |  |  |  | 
3 | > 100 |  | −10.0 ± 1.7 |  | −9.2 ± 2.1 | −11.3 ± 2.4 | −9.8 ± 3.9 | CCCCCCCOC1=C(OCC(O)CO)C(=O)O[C@@H]1[C@@H](O)CO (stereo partly drawn) [compound 21, 2-O-(2,3-dihydroxypropyl)-3-O-heptyl-AsA] | -6.3 ± 2.7 | 0.9 ± 8.2 | 21 ± 5 | 44.6 ± 6.2 | 97.9 | 92.7 | 92.7 | 86.3 |  |  |  |  | 
4 | 89.1 |  | −0.7 ± 3.1 |  | −1.7 ± 4.0 | 1.1 ± 4.8 | 1.0 ± 2.4 | CCCCCCCOC1=C(OCC(O)CO)[C@@H]([C@@H](O)CO)OC1=O (stereo partly drawn) [compound 7, 3-O-(2,3-dihydroxypropyl)-2-O-heptyl-AsA] | -4.2 ± 6.3 | 3.4 ± 5.2 | 20 ± 6.4 | 52.2 ± 5 | 101 | 95.4 | 91.9 | 79.7 |  |  |  |  | 
5 | 11.3 | −4.7 ± 5.0 | −4.4 ± 1.8 | −4.7 ± 2.9 | −7.1 ± 1.7 |  |  | CCCCCCCCCCCCCOC1=C(OCC(O)CO)[C@@H]([C@@H](O)CO)OC1=O (stereo partly drawn) [compound 13, 3-O-(2,3-dihydroxypropyl)-2-O-tridecyl-AsA] | 0.1 ± 8.6 | 46 ± 7.9 | 97.1 ± 2.3 | 108 ± 9.1 | 96.3 | 87.2 | 63.7 | 23.5 |  |  |  |  | 
6 | 12.1 | −6.4 ± 3.1 | −6.6 ± 8.7 | −2.2 ± 6.4 | −0.5 ± 4.3 |  |  | CCCCCCCCCCCCOC1=C(OCC(O)CO)C(=O)O[C@@H]1[C@@H](O)CO (stereo partly drawn) [compound 26, 2-O-(2,3-dihydroxypropyl)-3-O-dodecyl-AsA] | 14.1 ± 8.5 | 46 ± 3 | 96.2 ± 2.8 | 89.6 ± 24.4 | 99.8 | 87.3 | 45.5 | 24.3 |  |  |  |  | 
7 | > 100 |  | −13.1 ± 3.3 |  | −11.5 ± 1.6 | −4.5 ± 2.0 | −14.4 ± 1.8 | CCCCCCCCOC1=C(OCC(O)CO)C(=O)O[C@@H]1[C@@H](O)CO (stereo partly drawn) [compound 22, 2-O-(2,3-dihydroxypropyl)-3-O-octyl-AsA] | -10.4 ± 6 | 1 ± 7 | 2.3 ± 5.9 | 34.8 ± 8.2 | 98.8 | 99.3 | 91.6 | 83 |  |  |  |  | 
8 | 5 | −5.7 ± 9.5 | −8.1 ± 5.2 | −4.4 ± 4.6 | −8.4 ± 1.0 |  |  | CCCCCCCCCCCCCCOC1=C(OCC(O)CO)C(=O)O[C@@H]1[C@@H](O)CO (stereo partly drawn) [compound 28, 2-O-(2,3-dihydroxypropyl)-3-O-tetradecyl-AsA] | 32.8 ± 7.2 | 75.7 ± 3.9 | 95.9 ± 8.4 | 95.2 ± 20.7 | 85.1 | 62.6 | 23 | 18.1 | more than 166 fold | 0.54 ± 0.03 | 0.88 ± 0.20 | 0.83 ± 0.27 | 0.43 ± 0.11
9 | 18.1 | −10.2 ± 2.3 | −10.7 ± 3.8 | −8.0 ± 0.6 | −8.7 ± 1.5 |  |  | CCCCCCCCCCCOC1=C(OCC(O)CO)C(=O)O[C@@H]1[C@@H](O)CO (stereo partly drawn) [compound 25, 2-O-(2,3-dihydroxypropyl)-3-O-undecyl-AsA] | -5.1 ± 2.3 | 26.6 ± 3 | 85 ± 3.8 | 101 ± 10.1 | 101 | 85.8 | 53.6 | 24 |  |  |  |  | 
10 | 15.1 | −4.6 ± 1.4 | −5.1 ± 2.2 | 2.9 ± 3.9 | 1.0 ± 2.5 |  |  | CCCCCCCCCCCOC1=C(OCC(O)CO)[C@@H]([C@@H](O)CO)OC1=O (stereo partly drawn) [compound 11, 3-O-(2,3-dihydroxypropyl)-2-O-undecyl-AsA] | 12.4 ± 3 | 35.4 ± 2.8 | 89.3 ± 1.5 | 100 ± 4.7 | 106 | 90.8 | 69 | 25.8 |  |  |  |  | 
11 | 11.1 | −8.9 ± 3.5 | −8.2 ± 4.3 | −7.0 ± 6.7 | −9.7 ± 2.7 |  |  | CCCCCCCCCCCCCCOC1=C(OCC(O)CO)[C@@H]([C@@H](O)CO)OC1=O (stereo partly drawn) [compound 14, 3-O-(2,3-dihydroxypropyl)-2-O-tetradecyl-AsA] | 6.3 ± 2.6 | 48.4 ± 2.2 | 97.6 ± 1.8 | 100 ± 18.2 | 101 | 89.1 | 56.3 | 21 |  | 0.78 ± 0.10 | 1.02 ± 0.27 | 0.92 ± 0.22 | 0.58 ± 0.06
12 | 28.8 |  | 4.8 ± 6.6 |  | 4.0 ± 6.1 | 0.9 ± 6.0 | −1.2 ± 4.5 | CCCCCCCCCOC1=C(OCC(O)CO)[C@@H]([C@@H](O)CO)OC1=O (stereo partly drawn) [compound 9, 3-O-(2,3-dihydroxypropyl)-2-O-nonyl-AsA] | 0.2 ± 4.4 | 19.1 ± 1.3 | 51.9 ± 4.6 | 91.6 ± 1.2 | 99.2 | 88.9 | 77.6 | 58.4 |  |  |  |  | 
